Laboratory results: ChEMBL document CHEMBL1201862, “PubChem BioAssay data set” (2004)
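Results reflect a 48-hour exposure of cells in 96-well plates to compound at five concentrations. Here, GI50 denotes the concentration required for 50% inhibition of growth.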 Activity calls are given as the source filed them. No stated cut-off is given here; in the data, active = GI50 up to about 1.1 µM and inactive = higher.

How the values were obtained:
Test in all cases: NCI tumour cell line growth inhibition, 48 h
XF498 = system: XF498
HCT-15 = system: HCT-15
SK-OV-3 = system: SK-OV-3
HOP-92 = system: HOP-92
SN12C = system: SN12C
DLD-1 = system: DLD-1
SNB-19 = system: SNB-19
RXF 393 = system: RXF 393
KM12 = system: KM12
HOP-62 = system: HOP-62
HL-60 = system: HL-60
RPMI-8226 = system: RPMI-8226
SNB-75 = system: SNB-75
UACC-257 = system: UACC-257
NCI-H226 = system: NCI-H226
SNB-78 = system: SNB-78
U-251 = system: U-251
M14 = system: M14
SW-620 = system: SW-620
KM-20L2 = system: KM-20L2
SK-MEL-2 = system: SK-MEL-2
HCT-116 = system: HCT-116
EKVX = system: EKVX
TK-10 = system: TK-10
SF-268 = system: SF-268
DMS-114 = system: DMS-114
HOP-18 = system: HOP-18
MOLT-4 = system: MOLT-4
HCC 2998 = system: HCC 2998
NCI-H23 = system: NCI-H23
A549 = system: A549
OVCAR-5 = system: OVCAR-5
SR = system: SR
HT-29 = system: HT-29
SF-295 = system: SF-295
ACHN = system: ACHN
COLO 205 = system: COLO 205
CAKI-1 = system: CAKI-1
UACC-62 = system: UACC-62
UO-31 = system: UO-31
NCI-H460 = system: NCI-H460
SF-539 = system: SF-539
A498 = system: A498
OVCAR-3 = system: OVCAR-3
LXFL 529 = system: LXFL 529
RXF 631 = system: RXF 631
K562 = system: K562
NCI-H522 = system: NCI-H522
Malme-3M = system: Malme-3M
IGROV-1 = system: IGROV-1
OVCAR-4 = system: OVCAR-4
SK-MEL-28 = system: SK-MEL-28
CCRF-CEM = system: CCRF-CEM
DMS-273 = system: DMS-273
786-0 = system: 786-0
LOX IMVI = system: LOX IMVI
OVCAR-8 = system: OVCAR-8
M19-MEL = system: M19-MEL
SK-MEL-5 = system: SK-MEL-5

`N#CC(C(=O)C(=O)Nc1c(Cl)cccc1Cl)c1ccccc1` (centres undefined) was tested, and the GI50 (XF498) was > 100 µM (inactive), the GI50 (HCT-15) was over 10 µM and the GI50 (SK-OV-3) was > 10 µM (inactive). The GI50 (HOP-92) was > 10 µM (inactive), the GI50 (SN12C) was > 10 µM (inactive) and the GI50 (DLD-1) was > 10 µM (inactive). The GI50 (SNB-19) was > 10 µM (inactive), the GI50 (RXF 393) was > 10 µM (inactive) and the GI50 (KM12) was > 10 µM (inactive). The GI50 (HOP-62) was > 10 µM (inactive), the GI50 (HL-60) was > 10 µM (inactive) and the GI50 (RPMI-8226) was > 10 µM (inactive). For the same compound, the GI50 (SNB-75) was > 10 µM (inactive), the GI50 (UACC-257) was > 10 µM (inactive) and the GI50 (NCI-H226) was > 10 µM (inactive). The GI50 (SNB-78) was > 10 µM (inactive), the GI50 (U-251) was > 10 µM (inactive) and the GI50 (M14) was > 10 µM (inactive). The GI50 (SW-620) was > 10 µM (inactive), the GI50 (KM-20L2) was > 10 µM (inactive) and the GI50 (SK-MEL-2) was > 10 µM (inactive). For the same compound, the GI50 (HCT-116) was > 10 µM (inactive), the GI50 (EKVX) was > 10 µM (inactive) and the GI50 (TK-10) was > 10 µM (inactive). For the same compound, the GI50 (SF-268) was > 10 µM (inactive), the GI50 (DMS-114) was > 10 µM (inactive) and the GI50 (HOP-18) was > 10 µM (inactive). For the same compound, the GI50 (MOLT-4) was > 10 µM (inactive), the GI50 (HCC 2998) was > 10 µM (inactive) and the GI50 (NCI-H23) was > 10 µM (inactive). The GI50 (A549) was > 10 µM (inactive), the GI50 (OVCAR-5) was 0.906 µM (active) and the GI50 (SR) was > 10 µM (inactive). The GI50 (HT-29) was > 10 µM (inactive), the GI50 (SF-295) was 0.302 µM (active) and the GI50 (ACHN) was > 10 µM (inactive). The GI50 (COLO 205) was > 10 µM (inactive), the GI50 (CAKI-1) was > 10 µM (inactive) and the GI50 (UACC-62) was > 10 µM (inactive). The GI50 (UO-31) was > 10 µM (inactive), the GI50 (NCI-H460) was > 10 µM (inactive) and the GI50 (SF-539) was > 10 µM (inactive). The GI50 (A498) was > 10 µM (inactive), the GI50 (OVCAR-3) was > 10 µM (inactive) and the GI50 (LXFL 529) was > 10 µM (inactive). For the same compound, the GI50 (RXF 631) was > 10 µM (inactive), the GI50 (K562) was > 10 µM (inactive) and the GI50 (NCI-H522) was > 10 µM (inactive). For the same compound, the GI50 (Malme-3M) was > 10 µM (inactive), the GI50 (IGROV-1) was > 10 µM (inactive) and the GI50 (OVCAR-4) was > 10 µM (inactive). For the same compound, the GI50 (SK-MEL-28) was > 10 µM (inactive), the GI50 (CCRF-CEM) was > 10 µM (inactive) and the GI50 (DMS-273) was > 10 µM (inactive). The GI50 (786-0) was > 10 µM (inactive), the GI50 (LOX IMVI) was 0.356 µM (active) and the GI50 (OVCAR-8) was > 100 µM (inactive). For the same compound, the GI50 (M19-MEL) was > 10 µM (inactive) and the GI50 (SK-MEL-5) was > 10 µM (inactive).
